The values that follow come from US5468767A, “Antidepressant 3-(aminocycloalkenyl)-indole-5-nitrile derivatives” (Bristol-Myers Squibb Company, priority 1994, dated 1995).

The structures appear in SMILES notation. pIC50: −log10 of the molar value.

This test deals with synaptosomal re-uptake of tritiated serotonin. As to the kind of experiment: In vitro inhibition of synaptosomal re-uptake of tritiated serotonin (5-HT uptake inhibition). Format: biochemical. As for the experimental part:
Determination of endogenous monoaminergic re-uptake inhibition values both for serotonin and norepinephrine was accomplished using test methods described by P. Skolnick, et al., Br. J. Pharmacology, (1985), 86, pp. 637-644; with only minor modifications. In vitro IC50 (nM) test values were determined for representative compounds of Formula I based on their inhibition of synaptosomal re-uptake of tritiated serotonin. Test data IC50 values lower than 500 nM are considered to reflect activity as an inhibitor of serotonin re-uptake.
In vitro IC50 (nM) test values below 100 nM are designated with ** and those below 10 nM with ***.
For `CN(C)C1CC=C(c2c[nH]c3ccc(C#N)cc23)CC1` (stereo not drawn) [Example 23], the pIC50 was over 8.00.

In turn, `CCN(CC)C1CC=C(c2c[nH]c3ccc(C#N)cc23)CC1` (stereo not drawn) [Example 24] had a negative-log IC50 (pIC50) of over 7.00.

As for `CC(C)NC1CC=C(c2c[nH]c3ccc(C#N)cc23)CC1` (stereo not drawn) [Example 26], the pIC50 was over 7.00.

`N#Cc1ccc2[nH]cc(C3=CCC(NCc4ccccc4)CC3)c2c1` (stereo not drawn) [Example 27] showed a pIC50 of over 8.00.

`N#Cc1ccc2[nH]cc(C3=CCC(NCCc4ccccc4)CC3)c2c1` (stereo not drawn) [Example 28] showed a pIC50 of over 8.00.

The compound `CN(CCc1ccccc1)C1CC=C(c2c[nH]c3ccc(C#N)cc23)CC1` (stereo not drawn) [Example 29] gave a pIC50 of over 8.00.

In the case of `N#Cc1ccc2[nH]cc(C3=CCC(NCCc4cccc(F)c4)CC3)c2c1` (stereo not drawn) [Example 30], the pIC50 was over 8.00.

As for `N#CCc1ccc2[nH]cc(C3=CCC(NCCc4ccccc4)CC3)c2c1` (stereo not drawn) [Example 31, 3-[[4-(2-Phenylethyl)amino]-1-cyclohexen-1-yl]-1H-indole-5-acetonitrile], the pIC50 was over 7.00.

On to `N#Cc1ccc2[nH]cc(C3=CCC(NCCc4ccccc4F)CC3)c2c1` (stereo not drawn) [Example 32], for which the pIC50 is over 8.00.

`N#Cc1ccc2[nH]cc(C3=CCC(NCCc4ccc(F)cc4)CC3)c2c1` (stereo not drawn) [Example 33] showed a pIC50 of over 8.00.

For the compound `COc1ccccc1CCNC1CC=C(c2c[nH]c3ccc(C#N)cc23)CC1` (stereo not drawn) [Example 34], the negative logarithm of the IC50 (pIC50) was over 8.00.

For `COc1cccc(CCNC2CC=C(c3c[nH]c4ccc(C#N)cc34)CC2)c1` (stereo not drawn) [Example 35], the pIC50 is over 8.00.

Consider `COc1ccc(CCNC2CC=C(c3c[nH]c4ccc(C#N)cc34)CC2)cc1` (stereo not drawn) [Example 36], for which the pIC50 is over 8.00.

`N#Cc1ccc2[nH]cc(C3=CCC(NCCc4cccnc4)CC3)c2c1` (stereo not drawn) [Example 37] showed a pIC50 of over 8.00.

The compound `N#Cc1ccc2[nH]cc(C3=CCC(NCCCc4ccccc4)CC3)c2c1` (stereo not drawn) [Example 38] had a pIC50 of over 8.00.

As for `N#Cc1ccc2[nH]cc(C3=CCC(NCC4COc5ccccc5O4)CC3)c2c1` (stereo not drawn) [Example 39], the pIC50 is over 8.00.

`N#Cc1ccc2[nH]cc(C3=CCC(NCCCCc4ccccc4)CC3)c2c1` (stereo not drawn) [Example 40] showed a negative-log IC50 (pIC50) of over 8.00.

`CCNC1CC=C(c2c[nH]c3ccc(C#N)cc23)CC1` (stereo not drawn) [Example 41] had a pIC50 of over 7.00.
